The assay is described as follows: Inhibition of VEGF-stimulated VEGFR2 autophosphorylation in HUVEC cells […] relative to control.

For orientation: IC50 means the concentration at which inhibition is half-maximal. For `CO/N=C(\C)c1ccc2c(c1)c1c3c(c4c(c1n2CC(C)C)CCc1nn(C)cc1-4)C(=O)NC3` [7-[(1E)-1-(methoxyimino)ethyl]-19-methyl-3-(2-methylpropyl)-3,13,19,20-tetraazahexacyclo[14.7.0.0^{2,10}.0^{4,9}.0^{11,15}.0^{17,21}]tricosa-1(16),2(10),4,6,8,11(15),17,20-octaen-14-one], half-maximal inhibition (IC50) required 4 nM.

These data come from BindingDB's records for doi:10.1016/j.bmcl.2008.02.001 (Cephalon, 2008).
